What is called pIC50 is the IC50 on a negative log10 scale, so that one unit is a factor of ten.

The structures appear in SMILES notation. pIC50: −log10 of the molar value. Where two headings read alike, the source gives them in different places.

Results on 37 compounds are retold here after patent EP4722219A1 (Gan & Lee Pharmaceuticals Co., Ltd., priority 2023, dated 2024).

For this experiment, the target named is CRBN protein (Homo sapiens, UniProt Q96SW2). In words: Binding activity to E3 ubiquitin ligase CRBN (HTRF competitive binding kit, Thalidomide-Red). The source says:
Binding activity of the E3 ligase inhibitor disclosed in the present invention to E3 ubiquitin ligase CRBN
CRBN binding activity test kit (CEREBLON BINDING KITS (PE, 64BD CRBN PEG).
The detection is based on homogeneous time-resolved fluorescence (HTRF) technology.
This kit uses a europium-labeled GST antibody (GST Eu Cryptate Antibody) as the donor and XL665-labeled thalidomide (Thalidomide-Red reagent) as the receptor. The donor binds to the GST-tagged CRBN protein.
The donor and receptor were each diluted 50-fold using the buffer provided in the kit (PROTAC binding buffer 1). The CRBN protein was diluted 45-fold. An 8mM solution of the compound disclosed herein was diluted 10-fold using the diluent provided in the kit (1X diluent), followed by 7 successive 5-fold serial dilutions of the resulting solution.
The ratio of the acceptor and donor emission signals was calculated for each individual well.
IC50 values was calculated based on compound concentration, Ratio, and coefficient of variation using GraphPad Prism.

The mark [1] stands for this setting: competition with XL665-labeled thalidomide for GST-tagged CRBN protein, HTRF, 3 hours at room temperature, read-out: IC50.
[2] abbreviates: competition with XL665-labeled thalidomide for GST-tagged CRBN protein, HTRF, 3 hours at room temperature.

In the case of `Cn1c(=O)n(C2CCC(=O)NC2=O)c2ccc3c(c21)OC[C@H]1CNCCN31` (stereo in doubt) [Compound D6, 3-((R)-3-Methyl-2-oxo-2,3,5,5a,6,7,8,9-octahydro-1H-imidazo[4',5':5,6]benzo[1,2-b]pyrazino[1,2-d][1,4]oxazine-1-yl)piperidine-2,6-dione], the pIC50 under setting [1] is 6.26.

Turning to `O=C1CC[C@H](NC(=O)c2ccc3c(c2F)OCC32CCNCC2)C(=O)N1` [Compound A1, (S)-N-(2,6-dioxopiperidin-3-yl)-7-fluoro-2H-spiro[benzofuran-3,4'-piperidine]-6-carboxamide], under setting [1], the pIC50 is 4.81.

Turning to `O=C1CC[C@H](NC(=O)c2c(F)ccc3c2OCC32CCNCC2)C(=O)N1` [Compound A2, (S)-N-(2,6-dioxopiperidin-3-yl)-6-fluoro-2H-spiro[benzofuran-3,4'-piperidine]-7-carboxamide], under setting [1], the pIC50 is 4.92.

Regarding `O=C1CC[C@H](NC(=O)c2cc3c(cc2F)OCC32CCNCC2)C(=O)N1` [Compound A3, (S)-N-(2,6-dioxopiperidin-3-yl)-6-fluoro-2H-spiro[benzofuran-3,4'-piperidine]-5-carboxamide], the pIC50 under setting [1] was 4.28.

As to `O=C1CC[C@H](NC(=O)c2cc3c(cc2F)C2(CCNCC2)CO3)C(=O)N1` [Compound A4, (S)-N-(2,6-dioxopiperidin-3-yl)-5-fluoro-2H-spiro[benzofuran-3,4'-piperidine]-6-carboxamide], the negative logarithm of the IC50 (pIC50) under setting [1] was 4.63.

`O=C1CC[C@H](NC(=O)c2cc3c(cc2F)OC2(CCNCC2)CC3)C(=O)N1` [Compound A5, (S)-N-(2,6-dioxopiperidin-3-yl)-7-fluoro-spiro[2,4'-piperidine]-6-carboxamide] showed a negative-log IC50 (pIC50) of 4.68.

Regarding `O=C1CC[C@H](NC(=O)c2cc3c(cc2F)CCC2(CCNCC2)O3)C(=O)N1` [Compound A6, (S)-N-(2,6-dioxopiperidin-3-yl)-6-fluorospiro[chroman-2,4'-piperidine]-7-carboxamide], the negative logarithm of the IC50 (pIC50) under setting [1] was 4.45.

The compound `O=C1CC[C@H](NC(=O)c2cc3c(cc2F)CCC2(CNC2)O3)C(=O)N1` [Compound A7, (S)-N-(2,6-dioxopiperidin-3-yl)-6-fluoro-spiroazetidine-3,2-dihydropyridine-7-carboxamide] showed a pIC50 of 4.56.

Under setting [2], `COc1c(C(=O)N[C@H]2CCC(=O)NC2=O)ccc2c1OCC21CCNCC1` [Compound A8, (S)-N-(2,6-dioxohesperidin-3-yl)-7-methoxy-2H-spiro[benzofuran-3,4'-piperidine]-6-carboxamide] had a negative-log IC50 (pIC50) of 4.61.

As to `COc1cc2c(cc1C(=O)N[C@H]1CCC(=O)NC1=O)C1(CCNCC1)CO2` [Compound A9, (S)-N-(2,6-dioxopiperidin-3-yl)-6-methoxy-2H-spiro[benzofuran-3,4'-piperidine]-5-carboxamide], the pIC50 under setting [1] was 4.54.

`COc1cc2c(cc1C(=O)N[C@H]1CCC(=O)NC1=O)OCC21CCNCC1` [Compound A10, (S)-N-(2,6-dioxohesperidin-3-yl)-5-methoxy-2H-spiro[benzofuran-3,4'-piperidine]-6-carboxamide] gave a negative-log IC50 (pIC50) of 4.61.

Regarding `COc1cc2c(cc1C(=O)N[C@H]1CCC(=O)NC1=O)CCC1(CCNCC1)O2` [Compound A11, (S)-N-(2,6-dioxyhesperidin-3-yl)-7-methoxyspiro[chroman-2,4'-piperidine]-6-carboxamide], the pIC50 under setting [2] was 4.84.

In the case of `COc1cc2c(cc1C(=O)N[C@H]1CCC(=O)NC1=O)OC1(CCNCC1)CC2` [Compound A12, (S)-N-(2,6-dioxohesperidin-3-yl)-6-methoxyspiro[chroman-2,4'-pyridine]-7-carboxamide], the pIC50 is 4.69.

The compound `O=C1CC[C@H](NC(=O)c2ccc3c(c2)OC[C@@H]2CNCCN32)C(=O)N1` [Compound B1] showed a negative logarithm of the IC50 (pIC50) of 4.40.

In the case of `O=C1CC[C@H](NC(=O)c2ccc3c(c2)OC[C@H]2CNCCN32)C(=O)N1` [Compound B2], the negative logarithm of the IC50 (pIC50) under setting [1] was 4.22.

As to `O=C1CC[C@H](NC(=O)c2cc3c(cc2F)N2CCNC[C@@H]2CO3)C(=O)N1` [Compound B3, (R)-N-((S)-2,6-dioxyhesperidin-3-yl)-9-fluoro-1,2,3,4,4,4a,5-hexahydrobenzo[b]pyrazino[1,2-d][1,4]oxazine-8-carboxamide], the negative logarithm of the IC50 (pIC50) under setting [1] was 4.35.

As for `COc1cc2c(cc1C(=O)N[C@H]1CCC(=O)NC1=O)OC[C@H]1CNCCN21` [Compound B4, (R)-N-((S)-2,6-Dioxyhesperidin-3-yl)-O-9-methoxy-1,2,3,4,4a,5-hexahydrobenzo[b]pyrazino[1,2-d][1,4]oxazine-8-carboxamide], the pIC50 is 4.96.

Turning to `O=C1CC[C@H](NC(=O)c2ccc3c(c2F)OC[C@H]2CNCCN32)C(=O)N1` [Compound B5, (R)-N-((S)-2,6-Dioxyhesperidin-3-yl)-7-fluoro-1,2,3,4,4,4a,5-hexahydrobenzo[b]pyrazino[1,2-d][1,4]oxazine-8-carboxamide], the pIC50 was 4.22.

As for `COc1c(C(=O)N[C@H]2CCC(=O)NC2=O)ccc2c1OC[C@H]1CNCCN21` [Compound B6, (R)-N-((S)-2,6-Dioxyhesperidin-3-yl)-7-methoxy-1,2,3,4,4a,5-hexahydrobenzo[b]pyrazino[1,2-d][1,4]oxazine-8-carboxamide], the negative-log IC50 (pIC50) was 4.31.

Take `CN(C(=O)c1ccc2c(c1)OC[C@H]1CNCCN21)[C@H]1CCC(=O)NC1=O` [Compound B7, (R)-N-((S)-2,6-Dioxyhesperidin-3-yl)-N-methyl-1,2,3,4,4a,5-hexahydrobenzo[b]pyrazino[1,2-d][1,4]oxazine-8-carboxamide]: the negative-log IC50 (pIC50) under setting [2] was 5.27.

On to `O=C1CC[C@H](NC(=O)c2cc3c(cc2F)N2CCNC[C@H]2CO3)C(=O)N1` [Compound B8, (S)-N-((S)-2,6-Dioxyhesperidin-3-yl)-9-fluoro-1,2,3,4,4,4a,5-hexahydrobenzo[b]pyrazino[1,2-d][1,4]oxazine-8-carboxamide], for which the negative logarithm of the IC50 (pIC50) under setting [1] was 4.57.

The compound `COc1cc2c(cc1C(=O)N[C@H]1CCC(=O)NC1=O)OCC[C@H]1CNCCN21` [Compound B9, (S)-N-((S)-2,6-Dioxopiperidin-3-yl)-10-methoxy-2,3,4,4a,5,6-hexahydro-1H-benzo[b]pyrazine[1,2-d][1,4]oxazepine-9-carboxamide] had a negative-log IC50 (pIC50) of 4.89.

`COc1cc2c(cc1C(=O)N[C@H]1CCC(=O)NC1=O)COC[C@H]1CNCCN21` [Compound B10, (R)-N-((S)-2,6-Dioxopiperidin-3-yl)-10-methoxy-1,2,3,4,4a,5-hexahydro-7H-benzo[e]pyrazino[2,1-c][1,4]oxacyclopropane-9-amide] had a negative logarithm of the IC50 (pIC50) of 4.65.

Regarding `O=C1CC[C@H](NC(=O)c2ccc3c(c2)OCC[C@H]2CNCCN32)C(=O)N1` [Compound B11, (S)-N-((S)-2,6-Dioxopiperidin-3-yl)-2,3,4,4a,5,6-hexahydro-1H-benzo[b]pyrazino[1,2-d][1,4]oxazepine-9-carboxamide], the pIC50 under setting [1] was 4.26.

With `O=C1CCC(Nc2ccc3c(c2)OCC32CCNCC2)C(=O)N1` (stereo not shown) [Compound C1], the negative logarithm of the IC50 (pIC50) under setting [1] was 5.72.

Take `O=C1CCC(Nc2ccc3c(c2)C2(CCNCC2)CO3)C(=O)N1` (stereo not shown) [Compound C2, 3-((2H-spiro[benzofuran-3,4'-piperidine]-5-yl)amino)piperidine-2,6-dione]: the negative-log IC50 (pIC50) under setting [1] is 4.04.

As to `O=C1CCC(Nc2ccc3c(c2)CCC2(CCNCC2)O3)C(=O)N1` (stereo not shown) [Compound C3], the pIC50 under setting [2] was 5.26.

Under setting [2], `O=C1CCC(Nc2ccc3c(c2)OC2(CCNCC2)CC3)C(=O)N1` (stereo not shown) [Compound C4, 3-(Spiro[2,4'-piperidino]-7-ylamino)piperidine-2,6-dione] had a pIC50 of 5.00.

Turning to `O=C1CCC(Nc2ccc3c(c2)OC2(CCNCC2)C3)C(=O)N1` (stereo not shown) [Compound C5, 3-((3H-spiro[benzofuran-2,4'-piperidine]-6-yl)amino)piperidine-2,6-dione], the negative-log IC50 (pIC50) under setting [1] is 5.26.

Consider `O=C1CCC(Nc2ccc3c(c2)OCC2(CCNCC2)C3)C(=O)N1` (stereo not shown) [Compound C6, 3-(Spiro[benzopyran-3,4'-piperidine]-7-ylamino)piperidine-2,6-dione], for which, under setting [1], the negative logarithm of the IC50 (pIC50) is 5.47.

As for `O=C1CCC(Nc2ccc3c(c2)OC2(CC3)CNC2)C(=O)N1` (stereo not shown) [Compound C7, 3-(Spiro[azetidin-3,2'-chroman]-7'-ylamino)piperidine-2,6-dione], under setting [1], the negative-log IC50 (pIC50) was 4.99.

Turning to `O=C1CCC(Nc2ccc3c(c2)CC2(CCNCC2)O3)C(=O)N1` (stereo not shown) [Compound C8, 3-((3H-spiro[benzofuran-2,4'-piperidine]-5-yl)amino)piperidine-2,6-dione], under setting [1], the negative logarithm of the IC50 (pIC50) was 4.78.

Consider `O=C1CCC(Nc2ccc3c(c2)N2CCNC[C@@H]2CO3)C(=O)N1` (stereo partly drawn) [Compound C9, 3-(((R)-1,2,3,4,4a,5-Hexahydrobenzo[b]pyrazine[1,2-d][1,4]oxazine-9-yl)amino)piperidine-2,6-dione], for which the pIC50 under setting [1] is 4.89.

Regarding `CN(c1ccc2c(c1)OC[C@H]1CNCCN21)C1CCC(=O)NC1=O` (stereo partly drawn) [Compound C10, 3-(((R)-1,2,3,4,4a,5-Hexahydrobenzo[b]pyrazino[1,2-d][1,4]oxazine-8-yl)(methyl)amino)piperidine-2,6-dione], the pIC50 under setting [1] was 5.69.

On to `O=C1CCC(Nc2ccc3c(c2)N2CCNC[C@@H]2CCO3)C(=O)N1` (stereo partly drawn) [Compound C11, 3-(((S)-2,3,4,4a,5,6-Hexahydro-1H-benzo[b]pyrazine[1,2-d][1,4]oxacyclopropane-10-yl)amino)piperidine-2,6-dione], for which, under setting [1], the pIC50 was 4.68.

Regarding `O=C1CCC(Nc2ccc3c(c2)OCC[C@H]2CNCCN32)C(=O)N1` (stereo partly shown) [Compound C12], the negative-log IC50 (pIC50) under setting [1] was 5.26.

As to `O=C1CCC(Nc2ccc3c(c2)COC[C@H]2CNCCN32)C(=O)N1` (stereo partly shown) [Compound C13], under setting [1], the pIC50 was 5.08.
